This note sets out measurements from patent US6172064A, “Formamides as therapeutic agents” (Glaxo Wellcome Inc., priority 1999, dated 2001).

Experiment [1] addresses T1, TNFα converting enzyme (membrane preparation from MonoMac 6 cells) (Homo sapiens, UniProt P78536).
T1 construct: Membrane preparation from MonoMac 6 cells; endogenous in cells; host or cells: MonoMac 6 cells (membrane preparation, subfractionated extract)
Put plainly: TNFα Converting Enzyme Inhibition. Format: biochemical. As for the experimental part:
The potency of compounds of the invention as inhibitors of cell-free tumor necrosis factor α converting enzyme is determined as follows: Membrane preparation from MonoMac 6 cells (subfractionated extract from equivalent of 6×10^6 cells per 60 μl assay) is incubated for 1 hr with 200 nM radiolabeled substrate (Biotin-SPLAQAVRSSSRT-(^3 H)P-S--NH2, 4.1 Ci/mmol, ref #0935 from Zeneca) in 10 mM hepes buffer, 250 mM sucrose, pH=7.5. The reaction is quenched by addition of streptavidin SPA beads (Amersham RPNQ0006), with excess binding capacity relative to substrate, suspended in 250 mM EDTA, pH=8.0. Binding is complete within 15 minutes and plates are counted in a Wallac 1450 Microbeta liquid scintillation counter. Percent inhibition is calculated at each inhibitor concentration and the data were plotted using standard curve fitting programs. Approximate IC50 values were determined from these curves. Assays were run at low substrate concentration ([S]<<Km) such that the calculated IC50 values are equivalent to Ki within experimental error.

For experiment [2], the target named is T2, 19 kD truncated collagenase-1 (MMP-1) (Homo sapiens, UniProt P03956).
T2 construct: 19 kD truncated collagenase-1 (MMP-1)
T2 sequence (P03956 101-269 limits assumed): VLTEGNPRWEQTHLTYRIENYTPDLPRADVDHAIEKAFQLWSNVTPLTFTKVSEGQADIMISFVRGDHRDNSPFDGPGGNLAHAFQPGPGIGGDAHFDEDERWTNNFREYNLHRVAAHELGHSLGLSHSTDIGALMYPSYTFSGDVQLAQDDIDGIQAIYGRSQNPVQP
As to the kind of experiment: Matrix Metalloprotease Inhibition, Collagenase-1. In kind it is biochemical. As to conditions: 500 pM enzyme, 10 μM fluorogenic substrate, pH=7.6; approximate IC50 equivalent to Ki ([S]<<Km). The protocol:
(§1) The potency of compounds of the invention as inhibitors of 19 kD truncated collagenase-1 (MMP-1), 20 kD truncated collagenase-3 (MMP-13), stromelysin-1 (MMP-3), and 50 kD truncated gelatinase B (MMP-9) is determined according to the general procedure of Bickett et. al. (Anal. Biochem. 1993, 212, 58-64) using the fluorogenic substrate, DNP-Pro-Cha-Gly-Cys(Me)-His-Ala-Lys(NMA)--NH2 (DNP=2,4-dinitrophenyl,NMA=N-methylanthranilic acid). Assays are conducted in a total volume of 0.180 mL assay buffer (200 mM NaCl, 50 mM Tris, 5 mM CaCl2, 10 μM ZnSO4, 0.005% Brij 35, pH=7.6) in each well of a black 96 well microtiter plate. 19 kD collagenase-1, 20 kD collagenase-3, stromelysin-1,and 50 kD gelatinase B concentrations are adjusted to 500 pM, 30 pM, 5 nM, and 100 pM, respectively. A dose response is generated using an eleven-point, 3-fold serial dilution with initial starting test compound concentrations of 100, 10, or 1 μM. Inhibitor and enzyme reactions are incubated for 30 minutes at ambient temperature and then initiated with 10 μM fluorogenic substrate (above). The product formation is measured at Excitation343 /Emission450 nm after 45-180 minutes using a Fluostar SLT fluorescence analyzer. Percent inhibition is calculated at each inhibitor concentration and the data were plotted using standard curve fitting programs. Approximate IC50 values were determined from these curves. Assays were run at low substrate concentration ([S]<<Km) such that the calculated IC50 values are equivalent to Ki within experimental error.

For experiment [3], the target named is 20 kD truncated collagenase-3 (MMP-13). As to the kind of experiment: Matrix Metalloprotease Inhibition, Collagenase-3. Format: biochemical. As to conditions: 30 pM enzyme, 10 μM fluorogenic substrate, pH=7.6; approximate IC50 equivalent to Ki ([S]<<Km). As for the experimental part: as §1
Experiment [4] concerns the target 50 kD truncated gelatinase B (MMP-9). As to the kind of experiment: Matrix Metalloprotease Inhibition, Gelatinase B. Format: biochemical. The note with it: 100 pM enzyme, 10 μM fluorogenic substrate, pH=7.6; approximate IC50 equivalent to Ki ([S]<<Km). As for the experimental part:
as §1

The target of the next experiment is stromelysin-1 (MMP-3) (Homo sapiens, UniProt P08254). As to the kind of experiment: Matrix Metalloprotease Inhibition, Stromelysin-1. As to conditions: 5 nM enzyme, 10 μM fluorogenic substrate, pH=7.6; approximate IC50 equivalent to Ki ([S]<<Km). In kind it is biochemical. As for the experimental part: as §1
stromelysin-1 (MMP-3), sequence (P08254 100-477): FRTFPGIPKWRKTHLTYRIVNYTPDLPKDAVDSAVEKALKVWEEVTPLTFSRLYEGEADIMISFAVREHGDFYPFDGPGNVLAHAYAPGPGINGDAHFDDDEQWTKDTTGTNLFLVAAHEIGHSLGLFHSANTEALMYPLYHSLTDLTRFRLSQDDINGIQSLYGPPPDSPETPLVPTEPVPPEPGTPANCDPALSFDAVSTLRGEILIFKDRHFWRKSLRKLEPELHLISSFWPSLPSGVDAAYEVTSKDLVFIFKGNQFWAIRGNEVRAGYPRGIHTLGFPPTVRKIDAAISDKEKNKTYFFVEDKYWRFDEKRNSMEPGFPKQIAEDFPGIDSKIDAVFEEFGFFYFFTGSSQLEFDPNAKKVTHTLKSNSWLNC
The subject of experiment [5] is TNFα release from LPS/PMA-stimulated MonoMac 6 cells. As to the kind of experiment: Cell-Based TNFα Release Inhibition. The note with it: Homo sapiens, MONO-MAC-6, LPS/PMA stimulation, 2 hours, 37° C. The protocol:
The potency of compounds of the invention as inhibitors of release of soluble tumor necrosis factor α from stimulated monocytes in vitro is determined as follows: LPS/PMA solution for assay consisting of a) 4 μL of 5 mg/mL LPS stock and b) 6 μL of 10 mg/mL PMA stock are added to 500 μL of medium (RPMI 1640 (Gibco)+10% FBS+penicillin/streptomycin+1-glutamine). This solution is then diluted 1:1000 (40 ng/mL and 120 ng/mL) for use later in the assay. Compounds (10 mM) are serially diluted 1:3 in DMSO. Compound dilutions (20 μL) are added to a sterile round bottom 96 well plate (20 μL:200 μL total volume=1:10 for final concentrations of […] for test compounds). MonoMac 6 cell suspension (130 μL, 1.5×10^6 cells/mL) is then added to each well resulting in 2×10^5 cells/well. LPS/PMA (50 μL) solution is then added to each well to begin stimulation (final concentrations of […] and 30 ng/mL respectively). The plate is incubated at 37° C. for 2 hours then spun at 1,500 rpm for 3 minutes to pellet cells. The supernatant (120 μL/well) is removed to a new round bottom 96 well plate and diluted 1:10 in PBS. Then, 20 μL of the supernatant is transferred to a Cistron TNFα ELISA plate and processed according to the manufacturer's instructions to quantitate levels of TNFα. […]

The next experiment relates to Colo 205 Human Colon. Put plainly: Xenograft in vivo assay, Colo 205. The note with it: female NU/NU mice, p.o. once a day, 14 days, 30 mg/kg and 90 mg/kg. The protocol:
(§2) Female NU/NU mice with a weight of 21±2 g are weighed and used. Control and test animals are injected subcutaneously in the axillary region with a suspension of 2×10^6 viable tumor cells in 200 uL in PBS±matrigel on day 0. Tumors are allowed to grow for 10 to 14 days prior to drug administration. Doses of test drug are given on a mg/kg basis according to the mean body weight for each cage. For each drug, two doses are used, 30 mg/kg and 90 mg/kg, and are administered by p.o. route once a day over a 14 day time span. Tumor weight is calculated from two perpendicular caliper measurements of the tumor using the formula, tumor weight=length×width2.div.2 in millimeters. For each animal, tumor weight is monitored over the course of the experiment, and expressed as the percent of the tumor's weight. For each group, the mean increase in tumor weight over the course of the experiment is calculated (tumor weightday […]-tumor weightday 14=≈tumor weight) and the results expressed as percent inhibition of tumor growth with respect to the control group [1-(≈tumor weight treated group/(≈tumor weight control group)]×100. Results are presented in Table 4. The criterion for antitumor activity is 25% inhibition of tumor growth after 2 weeks of dosing (day 14).

For the next experiment, the system named is SW 620 Human Colon. Put plainly: Xenograft in vivo assay, SW 620. As to conditions: female NU/NU mice, p.o. once a day, 14 days, 30 mg/kg and 90 mg/kg. The protocol: as §2
Experiment [6] has as its system Lewis Lung M27 Murine Lung. As to the kind of experiment: Xenograft in vivo assay, Lewis Lung M27. The note with it: female NU/NU mice, p.o. once a day, 14 days, 30 mg/kg and 90 mg/kg. The protocol:
as §2

For another experiment, the system named is B16B6 Murine Melanoma. As to the kind of experiment: Xenograft in vivo assay, B16B6. As to conditions: female NU/NU mice, p.o. once a day, 14 days, 30 mg/kg and 90 mg/kg. The protocol:
as §2

For experiment [7], the system named is Mat Ly Lu Murine Prostate. As to the kind of experiment: Xenograft in vivo assay, Mat Ly Lu. The note with it: female NU/NU mice, p.o. once a day, 14 days, 30 mg/kg and 90 mg/kg. The protocol:
as §2

Another experiment relates to A549 Human Lung. Put plainly: Xenograft in vivo assay, A549. The note with it: female NU/NU mice, p.o. once a day, 14 days, 30 mg/kg and 90 mg/kg. The protocol:
as §2

[8] abbreviates: MonoMac 6 membrane preparation, 200 nM radiolabeled substrate, pH=7.5, 1 hr, approximate IC50 equivalent to Ki ([S]<<Km), read-out: TNFα Converting Enzyme Ki.

Read-outs that look alike come from different tables or passages of the source. Some results are limits rather than exact numbers.

Broadly, the Ki is the equilibrium dissociation constant of an inhibitor or competing ligand from its target. The term IC50 denotes the concentration that inhibits the measured activity by half. A lower IC50 goes with higher potency.

T1 sequence (P78536 215-824): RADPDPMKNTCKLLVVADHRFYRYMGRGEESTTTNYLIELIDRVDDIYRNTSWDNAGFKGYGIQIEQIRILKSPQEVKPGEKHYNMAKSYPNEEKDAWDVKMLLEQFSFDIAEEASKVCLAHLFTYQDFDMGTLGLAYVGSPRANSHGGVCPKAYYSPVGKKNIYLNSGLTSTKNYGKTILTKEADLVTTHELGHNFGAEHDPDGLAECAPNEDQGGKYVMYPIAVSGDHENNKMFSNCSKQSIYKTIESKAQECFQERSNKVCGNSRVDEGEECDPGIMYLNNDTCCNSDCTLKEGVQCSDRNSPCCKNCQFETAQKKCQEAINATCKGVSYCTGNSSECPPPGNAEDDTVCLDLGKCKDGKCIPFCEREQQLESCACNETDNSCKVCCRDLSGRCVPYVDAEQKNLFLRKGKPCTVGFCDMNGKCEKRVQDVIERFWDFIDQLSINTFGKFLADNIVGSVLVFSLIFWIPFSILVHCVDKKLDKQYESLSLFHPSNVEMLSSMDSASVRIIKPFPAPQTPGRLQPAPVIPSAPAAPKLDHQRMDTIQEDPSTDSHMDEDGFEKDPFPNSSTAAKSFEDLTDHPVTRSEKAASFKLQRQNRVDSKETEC

`CNC(=O)[C@@H](NC(=O)[C@H](CCCc1ccccc1)[C@H](C)N(O)C=O)C(C)(C)C` [Example 1]: the inhibitory constant (Ki) in [1] was 50 to 500 nM; in experiment [2], 50 to 500 nM; in experiment [3] it was 0.5 to 5 nM; in experiment [4], 0.5 to 5 nM; on stromelysin-1 (MMP-3) it was 50 to 500 nM. Besides, the IC50 in experiment [5] is above 500 nM. Also, the “percent inhibition of tumor growth” value in the experiment on Colo 205 Human Colon is given as “++ (51-75% Inhibition)”; in the experiment on SW 620 Human Colon, “++ (51-75% Inhibition)”; in experiment [6], “+ (26-50% Inhibition)”; in the experiment on B16B6 Murine Melanoma it was “+ (26-50% Inhibition)”; in experiment [7] it was “++ (51-75% Inhibition)”; in the experiment on A549 Human Lung it was “++++ (>100% Inhibition (Tumor Regression))”.
As for `CNC(=O)[C@@H](NC(=O)[C@H](CCCc1ccc(Cl)cc1)[C@H](C)N(O)C=O)C(C)(C)C` [Example 2], the inhibition constant (Ki) is above 500 nM in experiment [1] (setting [8]); 5 to 50 nM in experiment [2]; 0.001 to 0.5 nM in experiment [3]; 0.001 to 0.5 nM in experiment [4]; 5 to 50 nM at stromelysin-1 (MMP-3).
In the case of `CNC(=O)[C@@H](NC(=O)[C@H](CCCc1cccs1)[C@H](C)N(O)C=O)C(C)(C)C` [Example 3], the Ki was 50 to 500 nM in experiment [1] (setting [8]); 5 to 50 nM in [2]; 0.001 to 0.5 nM in experiment [3]; 0.5 to 5 nM in experiment [4]; 50 to 500 nM at stromelysin-1 (MMP-3).
Turning to `CC(C)[C@@H]([C@@H](CCCc1ccc(Cl)cc1)C(=O)N[C@H](C(=O)NCc1cccnc1)C(C)(C)C)N(O)C=O` [Example 9], the Ki in experiment [1] (setting [8]) lay in the range of 50 to 500 nM; in experiment [2] it was 50 to 500 nM; in [3], 0.001 to 0.5 nM; in experiment [4], 0.5 to 5 nM; at stromelysin-1 (MMP-3), 5 to 50 nM.
For `C[C@@H]([C@@H](CCCc1ccc(Cl)cc1)C(=O)N[C@H](C(=O)NCc1ccccn1)C(C)(C)C)N(O)C=O` [Example 20, (2R,3S)-3-(Formylhydroxyamino)-2-(3-(4-chlorophenyl)-1-propyl)-butanoic Acid [(1S)-2,2-Dimethyl-(1-(2-pyridylmethyl)carbamoyl)-1-propyl]amide], the Ki is above 500 nM in [1] (setting [8]); 50 to 500 nM in [2]; 0.001 to 0.5 nM in experiment [3]; 0.5 to 5 nM in [4]; 50 to 500 nM on stromelysin-1 (MMP-3).
Take `C[C@@H]([C@@H](CCCc1ccc(Cl)cc1)C(=O)N[C@H](C(=O)NCCCN1CCOCC1)C(C)(C)C)N(O)C=O` [Example 24, (2R,3S)-3-(Formylhydroxyamino)-2-(3-(4-chlorophenyl)-1-propyl)-butanoic Acid[(1S)-2,2-Dimethyl-(1-(3-(4-morpholino)-1-propyl)carbamoyl)-1-propyl]amide]: the Ki lay in the range of 50 to 500 nM in experiment [1] (setting [8]); 50 to 500 nM in experiment [2]; 0.001 to 0.5 nM in [3]; 0.5 to 5 nM in experiment [4]; 5 to 50 nM on stromelysin-1 (MMP-3).
As for `CNC(=O)[C@@H](NC(=O)[C@H](CCCc1ccc(C)cc1)[C@H](C)N(O)C=O)C(C)(C)C` [Example 52, (2R,3S)-3-(Formylhydroxyamino)-2-(3-(4-methylphenyl)-1-propyl)butanoic Acid [(1S)-2,2-Dimethyl-(1-methylcarbamoyl)-1-propyl]amide], the inhibitory constant (Ki) lay in the range of 50 to 500 nM in [1] (setting [8]); 50 to 500 nM in experiment [2]; 0.5 to 5 nM in [3]; 0.5 to 5 nM in experiment [4]; 5 to 50 nM on stromelysin-1 (MMP-3).
As for `CNC(=O)[C@@H](NC(=O)[C@H](CCCCCc1ccccc1)[C@H](C)N(O)C=O)C(C)(C)C` [Example 61, (2R,3S)-3-(Formylhydroxyamino)-2-(5-phenyl-1-pentyl)butanoic Acid [(1S)-2,2-Dimethyl-(1-methylcarbamoyl)-1-propyl]amide], the inhibition constant (Ki) in [1] (setting [8]) is above 500 nM; in experiment [2] it was 50 to 500 nM; in [3] it was 0.5 to 5 nM; in experiment [4], 0.5 to 5 nM; on stromelysin-1 (MMP-3), 5 to 50 nM.
